From patent publication US4512986A, “Progrestationally active steroids” (priority 1983, dated 1985) come the findings set out here.

Assay [1] has as its system uterine endometrium of estrone-primed immature rabbits. As to the kind of experiment: Clauberg assay (progestational activity, McPhail). As to conditions: for McPhail Index (0-4) (X ± S.D.): 0 none, 4 maximal. The class given is in vivo, rabbit (New Zealand White).
For assay [2], the target named is T1, Cytosol Progesterone Receptor of the Estrogen-primed Immature Rabbit Uterus (Oryctolagus cuniculus, UniProt P06186).
T1 construct: cytosol progesterone receptor of the estrogen-primed immature rabbit uterus; tissue Dutchland Laboratories, Inc., Denver, Pa (animals); host or cells: uterus cytosol of estradiol-treated immature female New Zealand White rabbits
T1 sequence (P06186 1-930): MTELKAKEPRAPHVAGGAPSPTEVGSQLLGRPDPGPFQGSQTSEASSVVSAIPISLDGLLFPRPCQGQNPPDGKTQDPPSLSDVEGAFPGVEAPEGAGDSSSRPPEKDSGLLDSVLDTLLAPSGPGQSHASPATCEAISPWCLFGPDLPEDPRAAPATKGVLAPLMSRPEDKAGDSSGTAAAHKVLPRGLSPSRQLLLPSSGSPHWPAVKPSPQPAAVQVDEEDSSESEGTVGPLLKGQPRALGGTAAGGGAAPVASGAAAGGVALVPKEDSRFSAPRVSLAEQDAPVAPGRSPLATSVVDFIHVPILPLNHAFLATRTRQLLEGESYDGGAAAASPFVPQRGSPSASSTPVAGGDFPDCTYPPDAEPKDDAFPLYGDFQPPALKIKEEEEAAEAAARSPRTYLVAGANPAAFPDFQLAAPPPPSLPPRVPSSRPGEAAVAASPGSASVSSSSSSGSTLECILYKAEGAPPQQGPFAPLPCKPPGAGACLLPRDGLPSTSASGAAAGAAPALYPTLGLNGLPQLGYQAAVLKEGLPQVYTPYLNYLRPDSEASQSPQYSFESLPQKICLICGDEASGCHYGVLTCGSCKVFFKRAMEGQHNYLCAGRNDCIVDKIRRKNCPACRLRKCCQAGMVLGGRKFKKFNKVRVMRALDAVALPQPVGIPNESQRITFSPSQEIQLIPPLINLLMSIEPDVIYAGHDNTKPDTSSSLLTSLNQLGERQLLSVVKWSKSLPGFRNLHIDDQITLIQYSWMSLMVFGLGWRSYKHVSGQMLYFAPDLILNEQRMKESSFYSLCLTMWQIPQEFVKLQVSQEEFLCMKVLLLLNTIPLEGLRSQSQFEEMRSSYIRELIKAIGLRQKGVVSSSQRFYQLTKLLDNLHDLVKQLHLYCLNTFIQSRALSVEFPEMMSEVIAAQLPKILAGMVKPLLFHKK
Description: Relative binding affinity for progesterone receptor (competition with 3H-progesterone). Details: species or system rabbit (New Zealand White). The procedure: RBA values recorded at 0° C. after short incubation times (e.g., 2 hr) mainly reflect differences in the association rate constants of the competing ligands, whereas those measured after long incubation times (e.g., 16 to 24 hr) and/or higher temperatures predominantly are influenced by differences in the dissociation rate constants of the competing ligands. RBA's determined after short incubation times primarily reflect the association of the competitor compared to the natural hormone. Conversely, RBA's measured after long incubation times reflect the dissociation rate of the competitor compared to the natural hormone.
The assay components are combined, allowed to equilibrate, and unbound radioactivity removed by charcoal adsorption.
Animal species. Immature female New Zealand White rabbits weighing 0.8 to 1.0 kg (Dutchland Laboratories, Inc., Denver, Pa).
Pretreatment. Subcutaneous treatment with 15 μg 17β-estradiol/0.6 ml sesame oil each morning (0830 to 0930 hr) for three days. Animals sacrificed 24 hr after final injection.
Tissue. Uterus; each uterus weighed about 1.0 g and two or three uteri were pooled for each assay.
Buffer. (A) 0.01M TES, pH 7.4, 1 mM EDTA, 0.012M thioglycerol and 30% glycerol for cytosol preparation and ^3 H-steroid, unlabeled hormone and compound solutions. (B) 0.01M TES, pH 7.4, 1 mM EDTA and 0.012M thioglycerol for charcoal solution.
Homogenization. Five or six 5-second bursts with 30 second cooling periods between bursts using Brinkman Polytron Pt. 10 at 3.5 rheostat setting.
Temperature. 0°-4° C. for all steps.
Centrifugation. 45,000 rpm for 1 hr, 50 Ti rotor, Beckman L8-80 ultracentrifuge.
Incubation. 16-18 hr at 4°-6° C.
Concentations. 1×10^-10 M to 1×10^-5 M (7 concentrations).
Method. Charcoal adsorption method used to remove unbound radioactivity. Five-tenths ml of dextran-coated charcoal (0.5% Norit A and 0.05% dextran T-70) added to all tubes except total radioactivity tubes (0.5 ml buffer [B] added), tubes vortexed 3-5 sec, allowed to sit for 10 minutes and centrifuged 10 minutes at 2000 rpm in Beckman TJ-6 centrifuge at 0°-4° C.
Data Interpretation. […] The relative binding affinity (RBA) of each compound was calculated by using the following equation. [formula] where

Assay [3] has as its system androgen target organs of castrate immature male rats. As to the kind of experiment: Anti-androgenic activity in the castrate immature rat assay. Particulars: testosterone alone sc. The class given is in vivo. On the procedure: The oral anti-androgenic activity of 6-methyl-6-dehydro-17α-ethynylprogesterone was evaluated in the castrate immature male rat assay [Lerner et al., Proc. Soc. […] The assay is briefly described in the footnotes to Table 11.
*This assay employs castrate immature rats. For methods refer to Lerner,
L. J., A. Bianchi and A. Borman, Proc. Soc.
**Groups of rats (7/group) were given daily injections of 0.3 ml sesame
oil (control) or compound (in 0.3 ml sesame oil) for 7 days. Some groups
also concurrently received progestational compounds by the sc or oral
route of administration in order to evaluate antiandrogenic activity. One
day after the final doses, the animals were sacrificed and the androgen
target organs indicated were weighed.
***Statistically significant (p < 0.05) lower organ weights versus the
testosterone, sc, (400 μg/rat/day) group as determined by Analysis of
Variance coupled with Duncan's Multiple Range Test.

Setting [4] is: Assay 2, 16-18 hour incubation, progesterone = 100, 5α-dihydro-17α-ethynyl: lot 1.
[5] abbreviates: Assay 3, 16-18 hour incubation, progesterone = 100, 5α-dihydro-17α-ethynyl: lot 1.
Setting [6] is: Assay 4, 16-18 hour incubation, progesterone = 100.
[7] abbreviates: Assay 5, 16-18 hour incubation, progesterone = 100.

With `C#C[C@]1(C(C)=O)CC[C@H]2[C@@H]3CC[C@H]4CC(=O)CC[C@]4(C)[C@H]3CC[C@@]21C` [5α-Dihydro-17α-ethynylprogesterone, 17α-Ethynyl-5α-pregnane-3,20-dione], the “Uterine Weight (X ± S.D.)” value in assay [1] (oral, 100 μg/rabbit daily) turned out to be 1.00 g; in assay [1] (oral, 200 μg/rabbit daily) it was 1.30 ± 0.22 g; in assay [1] (oral, 400 μg/rabbit daily) it was 1.10 ± 0.08 g; in assay [1] (sc, 5 μg/rabbit daily), 0.90 ± 0.29 g; in assay [1] (sc, 10 μg/rabbit daily), 1.33 ± 0.09 g; in assay [1] (sc, 20 μg/rabbit daily), 1.03 ± 0.17 g. Moreover, the “Uterine Weight (X ± S.D.)” value in assay [1] (sc, 100 μg/rabbit daily) is recorded as 1.18 ± 0.25 g; in assay [1] (sc, 200 μg/rabbit daily), 1.15 ± 0.07 g; in assay [1] (sc, 400 μg/rabbit daily), 1.24 ± 0.09 g. Also, the “McPhail Index (0-4) (X ± S.D.)” value in assay [1] (oral, 100 μg/rabbit daily) came out at 0; in assay [1] (oral, 200 μg/rabbit daily), 0.04 ± 0.06; in assay [1] (oral, 400 μg/rabbit daily) it was 0.04 ± 0.06; in assay [1] (sc, 5 μg/rabbit daily) it was 0.08 ± 0.12; in assay [1] (sc, 10 μg/rabbit daily) it was 0.29 ± 0.24; in assay [1] (sc, 20 μg/rabbit daily), 0.04 ± 0.06. The “McPhail Index (0-4) (X ± S.D.)” value worked out at 0.13 ± 0.13 in assay [1] (sc, 100 μg/rabbit daily); 0.58 ± 0.16 in assay [1] (sc, 200 μg/rabbit daily); 0.33 ± 0.06 in assay [1] (sc, 400 μg/rabbit daily). For the same molecule, the “progestational response, in words” value in assay [1] (sc 5, 10, 20, 100, 200, 400 and oral 100, 200, 400 μg/rabbit/day) was “inactive at all doses examined”. Further, the “RBA, mean of assays (X±S.D.)” value in assay [2] (16 to 18 hour incubation at 0° C., spurious value 11 excluded) is on record as 154±23. Besides, the RBA stood at 11% in assay [2] (Assay 1, 16-18 hour incubation, progesterone = 100, 5α-dihydro-17α-ethynyl: lot 1); 186% in assay [2] (setting [4]); 144% in assay [2] (setting [5]); 133% in assay [2] (Assay 3, lot 2, 16-18 hour incubation, progesterone = 100); 211 in assay [2] (two-hour incubation at 0° C.).
On to `C=C[C@]1(C(C)=O)CC[C@H]2[C@@H]3CC[C@H]4CC(=O)CC[C@]4(C)[C@H]3CC[C@@]21C` [5α-Dihydro-17α-vinylprogesterone], for which the RBA turned out to be 47% in assay [2] (setting [4]) and 51% in assay [2] (setting [5]).
`C#C[C@@]1(C(C)=O)CC[C@H]2[C@@H]3C[C@H](C)C4=CC(=O)CC[C@]4(C)[C@H]3CC[C@@]21C` [6α-Methyl-17α-acetylpregn-4-ene-20-yn-3-one]: the results for the RBA in assay [2] (setting [6]) and in assay [2] (setting [7]) were 5% and 6%, respectively.
For `C#C[C@]1(C(C)=O)CC[C@H]2[C@@H]3C[C@H](C)C4=CC(=O)CC[C@]4(C)[C@H]3CC[C@@]21C` [6α-Methyl-17α-ethynylprogesterone, 17α-Ethynyl-6α-methylprogesterone], the “potency relative to 6α-methyl-17-acetoxyprogesterone (Provera), in words” value in assay [1] (both given orally) is recorded as “at least as twice as potent”. The “progestational potency relative to subcutaneous progesterone, in words” value in assay [1] (compound given orally, progesterone sc) is reported as “four times more potent than progesterone administered subcutaneously”. Further, the “Uterine Weight (X ± S.D.)” value came to 1.28 ± 0.37 g in assay [1] (oral, 10 μg/rabbit daily); 2.43 ± 0.41 g in assay [1] (oral, 25 μg/rabbit daily); 3.21 ± 0.79 g in assay [1] (oral, 50 μg/rabbit daily); 3.28 ± 0.35 g in assay [1] (oral, 100 μg/rabbit daily); 1.31 ± 0.20 g in assay [1] (sc, 2.5 μg/rabbit daily); 1.84 ± 0.48 g in assay [1] (sc, 5 μg/rabbit daily). Moreover, the “Uterine Weight (X ± S.D.)” value in assay [1] (sc, 10 μg/rabbit daily) turned out to be 3.68 ± 0.31 g; in assay [1] (sc, 20 μg/rabbit daily), 3.69 ± 0.62 g. In addition, the “McPhail Index (0-4) (X ± S.D.)” value in assay [1] (oral, 10 μg/rabbit daily) is reported as 0.67 ± 0.42; in assay [1] (oral, 25 μg/rabbit daily) it was 2.67 ± 1.00; in assay [1] (oral, 50 μg/rabbit daily), 3.92 ± 0.12; in assay [1] (oral, 100 μg/rabbit daily) it was 4.00 ± 0.00; in assay [1] (sc, 2.5 μg/rabbit daily) it was 0.21 ± 0.06; in assay [1] (sc, 5 μg/rabbit daily) it was 1.29 ± 1.40. The “McPhail Index (0-4) (X ± S.D.)” value in assay [1] (sc, 10 μg/rabbit daily) was 3.92 ± 0.12; in assay [1] (sc, 20 μg/rabbit daily) it was 4.00 ± 0.00. Also, the RBA in assay [2] (setting [6]) came out at 63%; in assay [2] (setting [7]) it was 67%; in assay [2] (Assay 6, 16-18 hour incubation, progesterone = 100), 91%.
Molecule `CC(=O)[C@H]1CC[C@H]2[C@@H]3C[C@H](C)C4=CC(=O)CC[C@]4(C)[C@H]3CC[C@]12C` [6α-Methylprogesterone, reference compound] registered an RBA in assay [2] (setting [6]) of 57%.
In the case of `C#C[C@]1(C(C)=O)CC[C@H]2[C@@H]3CC[C@H]4CC(=O)CC[C@@H]4[C@H]3CC[C@@]21C` [17α-Ethynyl-19-nor-5α-pregnane-3,20-dione], the RBA is reported as 67% in assay [2] (setting [6]) and 66% in assay [2] (setting [7]).
On to `C[C@]12CC[C@H]3[C@@H](CCC4=CC(=O)CC[C@@]43C)[C@@H]1CC[C@@H]2O` [Testosterone], for which, in assay [3] (25 μg/rat daily), the “Levator Ani weight (X ± S.D.)” value amounted to 36 ± 4 mg, the “Seminal Vesicles weight (X ± S.D.)” value is reported as 23 ± 12 mg and the “Ventral Prostate weight (X ± S.D.)” value is 18 + 5 mg. In assay [3] (100 μg/rat daily), the “Levator Ani weight (X ± S.D.)” value was determined as 53 ± 6 mg, the “Seminal Vesicles weight (X ± S.D.)” value came out at 66 ± 6 mg and the “Ventral Prostate weight (X ± S.D.)” value is on record as 35 ± 5 mg. For the same molecule, in assay [3] (400 μg/rat daily), the “Levator Ani weight (X ± S.D.)” value was 63 ± 14 mg, the “Seminal Vesicles weight (X ± S.D.)” value is reported as 163 ± 43 mg and the “Ventral Prostate weight (X ± S.D.)” value was 70 ± 22 mg.
